Data from patent publication US7563774B2, “Combination of FBPase inhibitors and antidiabetic agents useful for the treatment of diabetes” (Metabasis Therapeutics, Inc., priority 2000, dated 2009).

Columns and labels:
[1] = test system: C57BL/KsJ db/db mice; assay: Acute combination treatment of insulin and Compound G in db/db mice (Example Z); assay type: in vivo, mouse
Experimental: Male C57BL/KsJ db/db mice were purchased at 5 weeks of age from Clea Japan, Inc. (Tokyo, Japan). The mice were maintained under standard vivarium conditions (24-26° C., 12-hour light cycle, 12-hour dark cycle) and received standard chow and water ad libitum. At 20 weeks of age, animals were divided into 4 groups (n=6/group). The treatment groups were control, compound G, insulin, and the combination of compound G and insulin. […] Insulin (human recombinant insulin, Penfill R300, Novo Nordisk, Denmark) was injected subcutaneously at a dose of 1.5 U/kg. Food was removed after treatment. Blood glucose levels in tail vein samples were measured by means of a Glucoloader-F, an automatic glucose analyzer, (A&T Co., Ltd., Tokyo, Japan).

[2] = test system: C57BL/KsJ db/db mice; assay: Chronic combination treatment of insulin and Compound G in db/db mice (Example AA); assay type: in vivo, mouse
Experimental: Male C57BL/KsJ db/db mice were purchased at 5 weeks of age from Clea Japan, Inc. (Tokyo, Japan). The mice were maintained under standard vivarium conditions (24-26° C., 12-hour light cycle, 12-hour dark cycle) and received standard chow and water ad libitum. At 16 weeks of age, animals were divided into 2 groups (n=5 or 9-10/group). Both groups were subcutaneously injected with human recombinant insulin (Penfill N300, Novo Nordisk, Denmark) on a daily basis to adjust plasma glucose levels to the target range of 250 to 300 mg/dL.

[3] = test system: C57BL/KsJ db/db mice; assay: Chronic combination treatment of insulin and Compound J in db/db mice (Example BB); assay type: in vivo, mouse
Experimental: Male C57BL/KsJ db/db mice were purchased at 5 weeks of age from Clea Japan, Inc. (Tokyo, Japan). […] At 19 weeks of age, animals were divided into 2 groups (n=6/group). […] Blood glucose levels in tail vein samples were measured by means of a Glucoloader-F, an automatic glucose analyzer, (A&T Co., Ltd., Tokyo, Japan).

[4] = test system: Goto-Kakizaki (GK) rats; assay: Acute combination treatment of insulin and an FBPase inhibitor in the Goto-Kakizaki rat (Example CC); assay type: in vivo
Experimental: Male Goto-Kakizaki (GK) rats were purchased at 9 weeks of age from Charles River Japan, Inc. (Tokyo, Japan). The rats were maintained under standard vivarium conditions (24-26° C., 12-hour light cycle, 12-hour dark cycle) and received standard chow and water ad libitum. At 48 weeks of age, animals were divided into 4 groups (n=6/group) after an overnight fast. The treatment groups were control, Compound J, insulin, and combination of Compound J and insulin. […] Insulin (human recombinant insulin, Penfill N300, Novo Nordisk, Denmark) was subcutaneously injected at the dose of 1.5 U/kg. Blood glucose levels in tail vein samples were measured by means of a Glucoloader-F, an automatic glucose analyzer, (A&T Co., Ltd., Tokyo, Japan).

[5] = test system: C57BL/KsJ db/db mice; assay: Acute combination treatment of a biguanide and an FBPase inhibitor in db/db mice (Example DD); assay type: in vivo, mouse
Experimental: Male C57BL/KsJ db/db mice were purchased at 5 weeks of age from Clea Japan, Inc. (Tokyo, Japan). The mice were maintained under standard vivarium conditions (24-26° C., 12-hour light cycle, 12-hour dark cycle) and received standard chow and water ad libitum. […] The treatment groups were control, compound J , metformin, and the combination of compound J and metformin. […] Food was removed after treatment. Blood glucose levels in tail vein samples were measured by means of a Glucoloader-F, an automatic glucose analyzer, (A&T Co., Ltd., Tokyo, Japan).

[6] = test system: Sprague-Dawley or Wistar rats; conditions: fasted rat, cited from earlier work

Molecule: Insulin: human recombinant insulin, Penfill R300 (Example Z) or Penfill N300 (Examples AA, BB, CC), Novo Nordisk
- Plasma Glucose, % of pretreatment values ([1]; after 1 hour): (54.2 +/− 4.1) %
- Plasma Glucose ([1]; after 1 hour, Compound G 200 mg/kg p.o., insulin 1.5 U/kg s.c.): 410.8 ± 34.4 mg/dL
- Plasma Glucose ([1]; after 4 hours): 540.3 ± 35.9 mg/dL
- Plasma Glucose, % of pretreatment values ([1]; after 4 hours): (71.4 +/− 4.1) %
- Plasma Glucose ([1]; after […]): 463.2 ± 40.2 mg/dL
- Plasma Glucose, % of pretreatment values ([1]; after […]): (61.1 +/− 4.9) %
- Plasma Glucose ([1]; before (0 hour)): 756.2 ± 15.2 mg/dL
- Plasma Glucose, % of pretreatment values ([1]; before (0 hour)): (100.0 +/− 0.0) %
- plasma glucose lowering ([1]; db/db mice, acute): improved hyperglycemia within 2.5 hours
- Body Weight ([2]; after 1 week): 50.7 ± 1.5 g
- Insulin Dose required to adjust plasma glucose to 250-300 mg/dL ([2]; after 1 week): 753 +/− 72 U/kg
- Plasma Glucose ([2]; after 1 week, insulin adjusted daily, Compound G 0.2% food admixture): 297.1 ± 46.0 mg/dL
- Body Weight ([2]; after 2 weeks): 54.3 ± 1.2 g
- Insulin Dose required to adjust plasma glucose to 250-300 mg/dL ([2]; after 2 weeks): 492 +/− 68 U/kg
- Plasma Glucose ([2]; after 2 weeks): 375.6 ± 53.5 mg/dL
- Body Weight ([2]; after 3 weeks): 57.4 ± 1.6 g
- Insulin Dose required to adjust plasma glucose to 250-300 mg/dL ([2]; after 3 weeks): 306 +/− 67 U/kg
- Plasma Glucose ([2]; after 3 weeks): 282.4 ± 43.1 mg/dL
- Body Weight ([2]; before (0 week)): 43.4 ± 2.2 g
- Insulin Dose required to adjust plasma glucose to 250-300 mg/dL ([2]; before (0 week)): 548 +/− 18 U/kg
- Plasma Glucose ([2]; before (0 week)): 736.5 ± 17.0 mg/dL
- body weight increase ([2]; db/db mice, 3 weeks): increased body weight remarkably
- Body Weight ([3]; after 1 week): 57.9 ± 1.3 g
- Insulin Dose required to achieve target blood glucose levels ([3]; after 1 week): 495 +/− 32 U/kg
- Plasma Glucose ([3]; after 1 week, insulin adjusted daily, Compound J 0.2% food admixture): 408.8 ± 15.3 mg/dL
- Body Weight ([3]; after 2 weeks): 59.7 ± 1.3 g
- Insulin Dose required to achieve target blood glucose levels ([3]; after 2 weeks): 699 +/− 63 U/kg
- Plasma Glucose ([3]; after 2 weeks): 447.7 ± 17.6 mg/dL
- Body Weight ([3]; after 3 weeks): 61.4 ± 1.2 g
- Insulin Dose required to achieve target blood glucose levels ([3]; after 3 weeks): 760 +/− 95 U/kg
- Plasma Glucose ([3]; after 3 weeks): 396.3 ± 39.3 mg/dL
- Body Weight ([3]; after 4 weeks): 64.2 ± 1.0 g
- Insulin Dose required to achieve target blood glucose levels ([3]; after 4 weeks): 802 +/− 129 U/kg
- Plasma Glucose ([3]; after 4 weeks): 316.7 ± 17.2 mg/dL
- Body Weight ([3]; before (0 week)): 54.9 ± 1.4 g
- Insulin Dose required to achieve target blood glucose levels ([3]; before (0 week)): 0 +/− 0 U/kg
- Plasma Glucose ([3]; before (0 week)): 617.2 ± 28.1 mg/dL
- body weight gain ([3]; db/db mice, 4 weeks of treatment): resulted in an increase in body weight
- plasma glucose lowering ([4]; GK rats, acute): decreased plasma glucose within 2 hours
- Plasma Glucose, % of before ([4]; after 2 hour): (55.0 +/− 11.0) %
- Plasma Glucose ([4]; after 2 hour, Compound J 50 mg/kg p.o., insulin 1.5 U/kg s.c.): 88.8 ± 16.8 mg/dL
- Plasma Glucose ([4]; after 4 hours): 71.3 ± 20.9 mg/dL
- Plasma Glucose, % of before ([4]; after 4 hours): (43.9 +/− 13.3) %
- Plasma Glucose ([4]; after 6 hours): 90.7 ± 19.7 mg/dL
- Plasma Glucose, % of before ([4]; after 6 hours): (55.4 +/− 12.4) %
- Plasma Glucose ([4]; before (0 hour)): 163.7 ± 5.8 mg/dL
- Plasma Glucose, % of before ([4]; before (0 hour)): (100.0 +/− 0.0) %

Molecule: CN(C)C(=N)N=C(N)N [Metformin, metformin, reference compound]
- Plasma Glucose, % of pretreatment value ([5]; after 2 hour): (67.7 +/− 1.9) %
- Plasma Glucose ([5]; after 2 hour, Compound J and/or metformin 150 mg/kg p.o.): 347.0 ± 21.2 mg/dL
- Plasma Glucose ([5]; after 4 hour): 346.5 ± 34.6 mg/dL
- Plasma Glucose, % of pretreatment value ([5]; after 4 hour): (66.4 +/− 3.1) %
- Plasma Glucose ([5]; after 6 hour): 348.3 ± 30.7 mg/dL
- Plasma Glucose, % of pretreatment value ([5]; after 6 hour): (67.7 +/− 4.1) %
- Plasma Glucose ([5]; after 8 hour): 407.8 ± 40.0 mg/dL
- Plasma Glucose, % of pretreatment value ([5]; after 8 hour): (79.1 +/− 5.6) %
- Plasma Glucose ([5]; before (0 hour)): 515.7 ± 37.0 mg/dL
- Plasma Glucose, % of pretreatment value ([5]; before (0 hour)): (100.0 +/− 0.0) %
- blood glucose lowering ([5]; db/db mice, acute): lowered blood glucose significantly relative to controls

Molecule: CCC1=C(C)CN(C(=O)NCCc2ccc(S(=O)(=O)NC(=O)N[C@H]3CC[C@H](C)CC3)cc2)C1=O [Glimepiride]
- ED50 ([6]; 2 h): 0.182 (2 h) mg/kg
- Gluc low,% ([6]; Dose 0.1): −18%
